Test system: RS4;11 cells
Assay: Cell viability assay (CellTiter-Glo) in RS4;11 cells
Format: cell-based
Conditions: Homo sapiens, 72 h; RS4;11 ALL cells treated for three days; read-out: cell viability inhibition IC50
Summary of the method: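 RS4;11 cells seeded at 5000 per well, exposed for 3 days to 8- or 12-point 3-fold serial dilutions. Viability read by CellTiter-Glo luminescence; IC50 fitted by nonlinear least-squares regression.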

`Cc1cnc(Nc2ccc(N3CCN(CC(=O)NCCCCCNc4cccc5c4C(=O)N(C4CCC(=O)NC4=O)C5=O)CC3)cc2)nc1Nc1cccc(S(=O)(=O)NC(C)(C)C)c1` (centres unmarked) [JA-093, 2-(4-(4-((4-((3-(N-(tert-butyl)sulfamoyl)phenyl)amino)-5-methylpyrimidin-2-yl)amino)phenyl)piperazin-1-yl)-N-(5-((2-(2,6-dioxopiperidin-3-yl)-1,3-dioxoisoindolin-4-yl)amino)pentyl)acetamide] and `Cc1cnc(Nc2ccc(N3CCN(CC(=O)NCCCCCCNc4cccc5c4C(=O)N(C4CCC(=O)NC4=O)C5=O)CC3)cc2)nc1Nc1cccc(S(=O)(=O)NC(C)(C)C)c1` (centres unmarked) [JA-094, 2-(4-(4-((4-((3-(N-(tert-butyl)sulfamoyl)phenyl)amino)-5-methylpyrimidin-2-yl)amino)phenyl)piperazin-1-yl)-N-(6-((2-(2,6-dioxopiperidin-3-yl)-1,3-dioxoisoindolin-4-yl)amino)hexyl)acetamide] cannot be ordered by IC50: under 0.1 µM for the first, under 0.1 µM for the second.

Same assay, conditions: Homo sapiens, 72 h; RS4;11 cells; cell viability, 3 days, CellTiter-Glo; read-out: IC50

Compared with `Cc1ncsc1-c1ccc(CNC(=O)[C@@H]2C[C@@H](O)CN2C(=O)[C@@H](NC(=O)CCCCCCCCCC(=O)N2CCN(c3ccc(Nc4nc5cccc(-c6ccc(S(C)(=O)=O)cc6)n5n4)cc3)CC2)C(C)(C)C)cc1` [JA-081, 4-Hydroxy-1-{2-[11-(4-{4-[5-(4-methanesulfonyl-phenyl)-[1,2,4]triazolo[1,5-a]pyridin-2-ylamino]-phenyl}-piperazin-1-yl)-11-oxo-undecanoylamino]-3,3-dimethyl-butyryl}-pyrrolidine-2-carboxylic acid 4-(4-methyl-thiazol-5-yl)-benzylamide], `Cc1ncsc1-c1ccc(CNC(=O)[C@@H]2C[C@@H](O)CN2C(=O)[C@@H](NC(=O)CCOCCC(=O)N2CCN(c3ccc(Nc4nc5cccc(-c6ccc(S(C)(=O)=O)cc6)n5n4)cc3)CC2)C(C)(C)C)cc1` [JA-082, 4-Hydroxy-1-(2-{3-[3-(4-{4-[5-(4-methanesulfonyl-phenyl)-[1,2,4]triazolo[1,5-a]pyridin-2-ylamino]-phenyl}-piperazin-1-yl)-3-oxo-propoxy]-propionylamino}-3,3-dimethyl-butyryl)-pyrrolidine-2-carboxylic acid 4-(4-methyl-thiazol-5-yl)-benzylamide] is lower in IC50: over 10 µM for the first, 6.43 µM for the second.

`Cc1ncsc1-c1ccc(CNC(=O)[C@@H]2C[C@@H](O)CN2C(=O)[C@@H](NC(=O)COCCOCCOCCOCCOCC(=O)N2CCN(c3ccc(Nc4nc5cccc(-c6ccc(S(C)(=O)=O)cc6)n5n4)cc3)CC2)C(C)(C)C)cc1` [JA-083, (2S,4R)-1-((S)-2-(tert-Butyl)-20-(4-(4-((5-(4-(methylsulfonyl)phenyl)-[1,2,4]triazolo[1,5-a]pyridin-2-yl)amino)phenyl)piperazin-1-yl)-4,20-dioxo-6,9,12,15,18-pentaoxa-3-azaicosanoyl)-4-hydroxy-N-(4-(4-methylthiazol-5-yl)benzyl)pyrrolidine-2-carboxamide] and `Cc1cnc(Nc2ccc(N3CCN(CC(=O)NCC(=O)N[C@H](C(=O)N4C[C@H](O)C[C@H]4C(=O)NCc4ccc(-c5scnc5C)cc4)C(C)(C)C)CC3)cc2)nc1Nc1cccc(S(=O)(=O)NC(C)(C)C)c1` [JA-097, (2S,4R)-1-((S)-2-(2-(2-(4-(4-((4-((3-(N-(tert-Butyl)sulfamoyl)phenyl)amino)-5-methylpyrimidin-2-yl)amino)phenyl)piperazin-1-yl)acetamido)acetamido)-3,3-dimethylbutanoyl)-4-hydroxy-N-(4-(4-methylthiazol-5-yl)benzyl)pyrrolidine-2-carboxamide] cannot be ordered by IC50: over 10 µM for the first, over 10 µM for the second.

Compared with `CS(=O)(=O)c1ccc(-c2cccc3nc(Nc4ccc(N5CCN(C(=O)CCCCCCCNc6cccc7c6C(=O)N(C6CCC(=O)NC6=O)C7=O)CC5)cc4)nn23)cc1` (centres unmarked) [JA-084, 2-(2,6-Dioxo-piperidin-3-yl)-4-[8-(4-{4-[5-(4-methanesulfonyl-phenyl)-[1,2,4]triazolo[1,5-a]pyridin-2-ylamino]-phenyl}-piperazin-1-yl)-8-oxo-octylamino]-isoindole-1,3-dione], `CS(=O)(=O)c1ccc(-c2cccc3nc(Nc4ccc(N5CCN(C(=O)CCOCCOCCOCCNc6cccc7c6C(=O)N(C6CCC(=O)NC6=O)C7=O)CC5)cc4)nn23)cc1` (centres unmarked) [JA-085, 2-(2,6-Dioxo-piperidin-3-yl)-4-[2-(2-{2-[3-(4-{4-[5-(4-methanesulfonyl-phenyl)-[1,2,4]triazolo[1,5-a]pyridin-2-ylamino]-phenyl}-piperazin-1-yl)-3-oxo-propoxy]-ethoxy}-ethoxy)-ethylamino]-isoindole-1,3-dione] is lower in IC50: over 10 µM for the first, 3.95 µM for the second. The second is the more potent here.

Going from `Cc1cnc(Nc2ccc(N3CCN(CC(=O)NCCOCCOCCNc4cccc5c4C(=O)N(C4CCC(=O)NC4=O)C5=O)CC3)cc2)nc1Nc1cccc(S(=O)(=O)NC(C)(C)C)c1` (centres unmarked) [JA-086, 2-(4-(4-((4-((3-(N-(tert-Butyl)sulfamoyl)phenyl)amino)-5-methylpyrimidin-2-yl)amino)phenyl)piperazin-1-yl)-N-(2-(2-(2-((2-(2,6-dioxopiperidin-3-yl)-1,3-dioxoisoindolin-4-yl)amino)ethoxy)ethoxy)ethyl)acetamide] to `Cc1cnc(Nc2ccc(N3CCN(CC(=O)NCCOCCOCCOCCNc4cccc5c4C(=O)N(C4CCC(=O)NC4=O)C5=O)CC3)cc2)nc1Nc1cccc(S(=O)(=O)NC(C)(C)C)c1` (centres unmarked) [JA-088, 2-(4-(4-((4-((3-(N-(tert-Butyl)sulfamoyl)phenyl)amino)-5-methylpyrimidin-2-yl)amino)phenyl)piperazin-1-yl)-N-(2-(2-(2-(2-((2-(2,6-dioxopiperidin-3-yl)-1,3-dioxoisoindolin-4-yl)amino)ethoxy)ethoxy)ethoxy)ethyl)acetamide], the IC50 falls from 0.564 µM to 0.369 µM (1.5-fold).

Going from `Cc1cnc(Nc2ccc(N3CCN(CC(=O)NCCOCCNc4cccc5c4C(=O)N(C4CCC(=O)NC4=O)C5=O)CC3)cc2)nc1Nc1cccc(S(=O)(=O)NC(C)(C)C)c1` (centres unmarked) [JA-087, 2-(4-(4-((4-((3-(N-(tert-Butyl)sulfamoyl)phenyl)amino)-5-methylpyrimidin-2-yl)amino)phenyl)piperazin-1-yl)-N-(2-(2-((2-(2,6-dioxopiperidin-3-yl)-1,3-dioxoisoindolin-4-yl)amino)ethoxy)ethyl)acetamide] to `Cc1cnc(Nc2ccc(N3CCN(CC(=O)NCCNc4cccc5c4C(=O)N(C4CCC(=O)NC4=O)C5=O)CC3)cc2)nc1Nc1cccc(S(=O)(=O)NC(C)(C)C)c1` (centres unmarked) [JA-090, 2-(4-(4-((4-((3-(N-(tert-Butyl)sulfamoyl)phenyl)amino)-5-methylpyrimidin-2-yl)amino)phenyl)piperazin-1-yl)-N-(2-((2-(2,6-dioxopiperidin-3-yl)-1,3-dioxoisoindolin-4-yl)amino)ethyl)acetamide], the IC50 rises from 0.143 µM to 3.48 µM (24-fold). The first is the more potent here.

Going from `Cc1cnc(Nc2ccc(N3CCN(CC(=O)NCCOCCOCCOCCOCCNc4cccc5c4C(=O)N(C4CCC(=O)NC4=O)C5=O)CC3)cc2)nc1Nc1cccc(S(=O)(=O)NC(C)(C)C)c1` (centres unmarked) [JA-089, 2-(4-(4-((4-((3-(N-(tert-Butyl)sulfamoyl)phenyl)amino)-5-methylpyrimidin-2-yl)amino)phenyl)piperazin-1-yl)-N-(14-((2-(2,6-dioxopiperidin-3-yl)-1,3-dioxoisoindolin-4-yl)amino)-3,6,9,12-tetraoxatetradecyl)acetamide] to `Cc1cnc(Nc2ccc(N3CCN(CC(=O)NCCCNc4cccc5c4C(=O)N(C4CCC(=O)NC4=O)C5=O)CC3)cc2)nc1Nc1cccc(S(=O)(=O)NC(C)(C)C)c1` (centres unmarked) [JA-091, 2-(4-(4-((4-((3-(N-(tert-Butyl)sulfamoyl)phenyl)amino)-5-methylpyrimidin-2-yl)amino)phenyl)piperazin-1-yl)-N-(3-((2-(2,6-dioxopiperidin-3-yl)-1,3-dioxoisoindolin-4-yl)amino)propyl)acetamide], the IC50 rises from 0.975 µM to 2.98 µM (3.1-fold).

Going from `Cc1cnc(Nc2ccc(N3CCN(CC(=O)NCCCCNc4cccc5c4C(=O)N(C4CCC(=O)NC4=O)C5=O)CC3)cc2)nc1Nc1cccc(S(=O)(=O)NC(C)(C)C)c1` (centres unmarked) [JA-092, 2-(4-(4-((4-((3-(N-(tert-Butyl)sulfamoyl)phenyl)amino)-5-methylpyrimidin-2-yl)amino)phenyl)piperazin-1-yl)-N-(4-((2-(2,6-dioxopiperidin-3-yl)-1,3-dioxoisoindolin-4-yl)amino)butyl)acetamide] to `Cc1cnc(Nc2ccc(N3CCN(CC(=O)NCCCCCNc4cccc5c4C(=O)N(C4CCC(=O)NC4=O)C5=O)CC3)cc2)nc1Nc1cccc(S(=O)(=O)NC(C)(C)C)c1` (centres unmarked) [JA-093, 2-(4-(4-((4-((3-(N-(tert-butyl)sulfamoyl)phenyl)amino)-5-methylpyrimidin-2-yl)amino)phenyl)piperazin-1-yl)-N-(5-((2-(2,6-dioxopiperidin-3-yl)-1,3-dioxoisoindolin-4-yl)amino)pentyl)acetamide], the IC50 falls from 2.83 µM to 0.0733 µM (39-fold).

First: Cc1cnc(Nc2ccc(N3CCN(CC(=O)NCCCCCCNc4cccc5c4C(=O)N(C4CCC(=O)NC4=O)C5=O)CC3)cc2)nc1Nc1cccc(S(=O)(=O)NC(C)(C)C)c1 (centres unmarked) [JA-094, 2-(4-(4-((4-((3-(N-(tert-butyl)sulfamoyl)phenyl)amino)-5-methylpyrimidin-2-yl)amino)phenyl)piperazin-1-yl)-N-(6-((2-(2,6-dioxopiperidin-3-yl)-1,3-dioxoisoindolin-4-yl)amino)hexyl)acetamide]
Second: Cc1cnc(Nc2ccc(N3CCN(CC(=O)NCCCCCCCNc4cccc5c4C(=O)N(C4CCC(=O)NC4=O)C5=O)CC3)cc2)nc1Nc1cccc(S(=O)(=O)NC(C)(C)C)c1 (centres unmarked) [JA-095, 2-(4-(4-((4-((3-(N-(tert-Butyl)sulfamoyl)phenyl)amino)-5-methylpyrimidin-2-yl)amino)phenyl)piperazin-1-yl)-N-(7-((2-(2,6-dioxopiperidin-3-yl)-1,3-dioxoisoindolin-4-yl)amino)heptyl)acetamide]
The IC50 of the first is 1.6-fold lower: 0.0744 µM for the first, 0.121 µM for the second.

First: Cc1cnc(Nc2ccc(N3CCN(CC(=O)NCCCCCCCCNc4cccc5c4C(=O)N(C4CCC(=O)NC4=O)C5=O)CC3)cc2)nc1Nc1cccc(S(=O)(=O)NC(C)(C)C)c1 (centres unmarked) [JA-096, 2-(4-(4-((4-((3-(N-(tert-Butyl)sulfamoyl)phenyl)amino)-5-methylpyrimidin-2-yl)amino)phenyl)piperazin-1-yl)-N-(8-((2-(2,6-dioxopiperidin-3-yl)-1,3-dioxoisoindolin-4-yl)amino)octyl)acetamide]
Second: Cc1cnc(Nc2ccc(N3CCN(CC(=O)NCCC(=O)N[C@H](C(=O)N4C[C@H](O)C[C@H]4C(=O)NCc4ccc(-c5scnc5C)cc4)C(C)(C)C)CC3)cc2)nc1Nc1cccc(S(=O)(=O)NC(C)(C)C)c1 [JA-098, (2S,4R)-1-((S)-2-(3-(2-(4-(4-((4-((3-(N-(tert-Butyl)sulfamoyl)phenyl)amino)-5-methylpyrimidin-2-yl)amino)phenyl)piperazin-1-yl)acetamido)propanamido)-3,3-dimethylbutanoyl)-4-hydroxy-N-(4-(4-methylthiazol-5-yl)benzyl)pyrrolidine-2-carboxamide]
The IC50 of the first is lower: 0.159 µM for the first, over 10 µM for the second. The first is the more potent here.

Reference: US20230093099A1, “COMPOUNDS AND METHODS OF TREATING CANCERS” (CULLGEN (SHANGHAI), INC., priority 2019, published 2023)
